# Test results from patent US20260132127A1, “NOVEL SPIRO COMPOUND” (MITSUBISHI TANABE PHARMA CORPORATION, priority 2021, published 2026).
# Molecular target: T1, human TRH-DE (Homo sapiens, UniProt Q9UKU6)
# T1 construct: expressed in transfected cells; host or cells: Expi 293 cells (transient expression), membrane fraction
# T1 sequence (Q9UKU6 1-1069): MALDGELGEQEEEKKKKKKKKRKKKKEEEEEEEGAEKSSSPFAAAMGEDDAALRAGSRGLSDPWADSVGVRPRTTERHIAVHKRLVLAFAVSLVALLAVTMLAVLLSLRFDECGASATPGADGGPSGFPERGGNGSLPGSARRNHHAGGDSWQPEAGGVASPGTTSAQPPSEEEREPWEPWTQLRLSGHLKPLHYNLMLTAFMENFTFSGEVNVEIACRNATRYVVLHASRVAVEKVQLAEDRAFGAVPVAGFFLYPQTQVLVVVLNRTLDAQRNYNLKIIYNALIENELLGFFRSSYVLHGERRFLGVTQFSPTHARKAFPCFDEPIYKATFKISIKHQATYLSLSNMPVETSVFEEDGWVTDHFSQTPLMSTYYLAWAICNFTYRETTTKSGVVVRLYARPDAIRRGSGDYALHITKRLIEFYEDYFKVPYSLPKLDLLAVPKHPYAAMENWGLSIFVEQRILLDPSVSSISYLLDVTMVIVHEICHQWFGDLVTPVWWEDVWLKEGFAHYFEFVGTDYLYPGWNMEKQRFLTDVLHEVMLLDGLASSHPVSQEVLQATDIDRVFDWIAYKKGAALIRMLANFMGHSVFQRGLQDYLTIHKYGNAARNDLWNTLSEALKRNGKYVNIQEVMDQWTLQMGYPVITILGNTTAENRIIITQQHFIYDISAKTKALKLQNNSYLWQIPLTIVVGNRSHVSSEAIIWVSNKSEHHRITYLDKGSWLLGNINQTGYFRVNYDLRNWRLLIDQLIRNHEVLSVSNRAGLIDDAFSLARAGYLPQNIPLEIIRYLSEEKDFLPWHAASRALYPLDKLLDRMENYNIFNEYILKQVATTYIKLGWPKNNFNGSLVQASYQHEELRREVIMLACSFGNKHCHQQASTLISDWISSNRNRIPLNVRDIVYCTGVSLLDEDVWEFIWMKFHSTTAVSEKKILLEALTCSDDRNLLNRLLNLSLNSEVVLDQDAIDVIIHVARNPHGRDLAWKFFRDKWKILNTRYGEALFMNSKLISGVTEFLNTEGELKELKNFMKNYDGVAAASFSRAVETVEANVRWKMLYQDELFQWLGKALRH
# Test: TRH-DE inhibition test (RapidFire MS measurement of product Cyclo (His-Pro))
# Assay type: biochemical
# Conditions: membrane fraction of Expi 293 cells expressing human TRH-DE; 10 μM TRH substrate; room temperature, 2 hours; 16-point concentration test
# Experimental: The compounds described in “1. […] The enzyme inhibitory activity of each of the compounds was evaluated by measuring the amount of the product Cyclo (His-Pro) of the enzyme reaction using a RapidFire RF 365 HTMS system (manufactured by Agilent Technologies, Inc.) connected to a triple quadrupole mass spectrometer (API 4000, manufactured by SCIEX). A membrane fraction prepared from Expi 293 cells transiently expressing human TRH-DE was used as an enzyme. The membrane fraction was suspended in 4 μg/ml of a reaction buffer (50 mM sodium phosphate (pH 7.4), 25 mM NaCl, 0.01% Triton […], and 200 μM bacitracin) and mixed with the test compound at each concentration. 10 μM […]), which was a substrate, was added, and the mixture was reacted at room temperature for 2 hours. The reaction was stopped in the same amount of a solution of acetonitrile:methanol (1:1) containing 1 μM of the stable isotope Cyclo ([…]) as an internal standard, and the supernatant was collected after centrifugation. In the RapidFire RF 365 HTMS system, a portion of the supernatant was aspirated, loaded onto a Graphic Carbon column (manufactured by Agilent Technologies, Inc.) with a buffer A (water, 0.09% formic acid, 0.01% trifluoroacetic acid) and washed with ultrapure water. Next, washing was performed with acetonitrile. The contents in the column were eluted with a buffer B (80% acetonitrile, 0.09% formic acid, 0.01% trifluoroacetic acid) and injected into a mass spectrometer for analysis. […] The ESI voltage was set to 5,500 V and the temperature was set to 650° C. For the calculation of the inhibition rate, a Ratio value corrected by dividing the product amount by the internal standard amount was used. The inhibition rate (%) was calculated by % Inhibition={1-(Ratio value of sample-Ratio value of blank)/(Ratio value of control-Ratio value of blank)}×100. The IC50 value was calculated from the concentration reactivity test at 16 points.
row,IC50 [nM],SMILES
1,1,C[C@@H]1COc2cc(N3CCC(C(F)(F)F)C3)ncc2C(=O)N1C1CC2(C1)CN(S(=O)(=O)c1ccccc1F)C2 (mixture of isomers) [Example 145]
2,1,C[C@@H]1COc2cc(N3CCCC3C(F)(F)F)ncc2C(=O)N1C1CC2(C1)CN(S(=O)(=O)c1ccccc1F)C2 (mixture of isomers) [Example 146]
3,1,CC1CCCN(c2cc3c(cn2)C(=O)N(C2CC4(C2)CN(S(=O)(=O)c2ccccc2F)C4)[C@H](C)CO3)C1 (mixture of isomers) [Example 152]
4,13,C[C@@H]1COc2nc(N3CCOC(C(F)(F)F)C3)ncc2C(=O)N1C1CC2(C1)CN(S(=O)(=O)c1ccccc1F)C2 (mixture of isomers) [Example 385]
5,13,CC1CN(c2ncc3c(n2)OC[C@@H](C)N(C2CC4(C2)CN(S(=O)(=O)c2ccccc2F)C4)C3=O)CCO1 (mixture of isomers) [Example 386]
6,3,C[C@@H]1COc2nc(N3CCC4(CCOC4)C3)ncc2C(=O)N1C1CC2(C1)CN(S(=O)(=O)c1ccccc1F)C2 (mixture of isomers) [Example 405]
7,6,C[C@@H]1COc2nc(N3CCCC34CCOC4)ncc2C(=O)N1C1CC2(C1)CN(S(=O)(=O)c1ccccc1F)C2 (mixture of isomers) [Example 406]
8,1010,CC1CN(C2CC3(C2)CN(S(=O)(=O)c2ccccc2F)C3)C(=O)c2ncccc2O1 (racemic) [Example 2]
9,14,CC1COc2ccc(F)nc2C(=O)N1C1CC2(C1)CN(S(=O)(=O)c1ccccc1F)C2 (racemic) [Example 9]
10,12,CC1COc2cc(F)cnc2C(=O)N1C1CC2(C1)CN(S(=O)(=O)c1ccccc1F)C2 (racemic) [Example 10]
11,24,Cc1ccc2c(n1)C(=O)N(C1CC3(C1)CN(S(=O)(=O)c1ccccc1F)C3)C(C)CO2 (racemic) [Example 14]
12,7,Cc1cnc2c(c1)OCC(C)N(C1CC3(C1)CN(S(=O)(=O)c1ccccc1F)C3)C2=O (racemic) [Example 15]
13,20,Cc1ccnc2c1OCC(C)N(C1CC3(C1)CN(S(=O)(=O)c1ccccc1F)C3)C2=O (racemic) [Example 16]
14,17,CC1COc2ccnc(F)c2C(=O)N1C1CC2(C1)CN(S(=O)(=O)c1ccccc1F)C2 (racemic) [Example 20]
15,16,CC1COc2c(F)cncc2C(=O)N1C1CC2(C1)CN(S(=O)(=O)c1ccccc1F)C2 (racemic) [Example 21]
16,68,CC1COc2ccnc(C(F)(F)F)c2C(=O)N1C1CC2(C1)CN(S(=O)(=O)c1ccccc1F)C2 (racemic) [Example 23]
17,54,CC1COc2nccc(F)c2C(=O)N1C1CC2(C1)CN(S(=O)(=O)c1ccccc1F)C2 (racemic) [Example 25]
18,33,CC1COc2ncc(F)cc2C(=O)N1C1CC2(C1)CN(S(=O)(=O)c1ccccc1F)C2 (racemic) [Example 26]
19,23,CC1COc2nc(F)ccc2C(=O)N1C1CC2(C1)CN(S(=O)(=O)c1ccccc1F)C2 (racemic) [Example 28]
20,50,Cc1ccnc2c1C(=O)N(C1CC3(C1)CN(S(=O)(=O)c1ccccc1F)C3)C(C)CO2 (racemic) [Example 29]
21,15,Cc1cnc2c(c1)C(=O)N(C1CC3(C1)CN(S(=O)(=O)c1ccccc1F)C3)C(C)CO2 (racemic) [Example 30]
22,9,Cc1ccc2c(n1)OCC(C)N(C1CC3(C1)CN(S(=O)(=O)c1ccccc1F)C3)C2=O (racemic) [Example 31]
23,214,"CC1c2ccccc2CCC(=O)N1C1CC2(C1)CN(S(=O)(=O)c1ccccc1F)C2 (racemic) [Example 45, 2-[2-(2-fluorophenyl)sulfonyl-2-azaspiro[3,3]heptan-6-yl]-1-methyl-4,5-dihydro-1H-2-benzazepin-3-one]"
24,129,CC1c2ccccc2OCC(=O)N1C1CC2(C1)CN(S(=O)(=O)c1ccccc1F)C2 (racemic) [Example 46]

row,IC50 [nM],SMILES
1,544,CC1c2ccccc2NCC(=O)N1C1CC2(C1)CN(S(=O)(=O)c1ccccc1F)C2 (racemic) [Example 47]
2,6,CC1COc2cccnc2C(=O)N1C1CC2(C1)CN(S(=O)(=O)c1ccccc1F)C2 (racemic) [Example 49]
3,19,CCC1COc2cccnc2C(=O)N1C1CC2(C1)CN(S(=O)(=O)c1ccccc1F)C2 (racemic) [Example 50]
4,8,CC1COc2ccncc2C(=O)N1C1CC2(C1)CN(S(=O)(=O)c1ccccc1F)C2 (racemic) [Example 51]
5,22,CCC1COc2ccncc2C(=O)N1C1CC2(C1)CN(S(=O)(=O)c1ccccc1F)C2 (racemic) [Example 52]
6,14,CC1COc2cnccc2C(=O)N1C1CC2(C1)CN(S(=O)(=O)c1ccccc1F)C2 (racemic) [Example 54]
7,33,CCC1COc2ncccc2C(=O)N1C1CC2(C1)CN(S(=O)(=O)c1ccccc1F)C2 (racemic) [Example 59]
8,22,CC1COc2ncccc2C(=O)N1C1CC2(C1)CN(S(=O)(=O)c1ccccc1F)C2 (racemic) [Example 63]
9,10,CC1COc2ccsc2C(=O)N1C1CC2(C1)CN(S(=O)(=O)c1ccccc1F)C2 (racemic) [Example 64]
10,27,CC1Cc2cccnc2C(=O)N1C1CC2(C1)CN(S(=O)(=O)c1ccccc1F)C2 (racemic) [Example 65]
11,31,CC1Cc2ncccc2C(=O)N1C1CC2(C1)CN(S(=O)(=O)c1ccccc1F)C2 (racemic) [Example 66]
12,77,CC1Cc2nc(C(F)(F)F)ccc2C(=O)N1C1CC2(C1)CN(S(=O)(=O)c1ccccc1F)C2 (racemic) [Example 67]
13,126,CC1Cc2ccccc2OC(=O)N1C1CC2(C1)CN(S(=O)(=O)c1ccccc1F)C2 (racemic) [Example 71]
14,841,CC1COc2ncccc2C(=O)N1C1CC2(C1)CN(S(=O)(=O)c1cccc(F)c1)C2 (racemic) [Example 72]
15,92,CC1COc2ncccc2C(=O)N1C1CC2(C1)CN(S(=O)(=O)c1ccccc1Cl)C2 (racemic) [Example 73]
16,918,COc1cccc(S(=O)(=O)N2CC3(CC(N4C(=O)c5cccnc5OCC4C)C3)C2)c1 (racemic) [Example 74]
17,120,COc1ccc(S(=O)(=O)N2CC3(CC(N4C(=O)c5cccnc5OCC4C)C3)C2)cc1 (racemic) [Example 75]
18,566,Cc1ccccc1S(=O)(=O)N1CC2(CC(N3C(=O)c4cccnc4OCC3C)C2)C1 (racemic) [Example 76]
19,324,Cc1cccc(S(=O)(=O)N2CC3(CC(N4C(=O)c5cccnc5OCC4C)C3)C2)c1 (racemic) [Example 77]
20,2330,CC1COc2ncccc2C(=O)N1C1CC2(C1)CN(S(=O)(=O)c1ccccc1C(F)(F)F)C2 (racemic) [Example 78]
21,295,CC1COc2ncccc2C(=O)N1C1CC2(C1)CN(S(=O)(=O)c1ccc(F)cc1)C2 (racemic) [Example 80]
22,670,CC1COc2ncccc2C(=O)N1C1CC2(C1)CN(S(=O)(=O)c1cccs1)C2 (racemic) [Example 81]
23,60,CC1CCc2cc(C(F)(F)F)cnc2C(=O)N1C1CC2(C1)CN(S(=O)(=O)c1ccccc1F)C2 (racemic) [Example 86]
